Data on two molecules can be found in patent publication US20240327415A1, “Multicomponent Complexes, Including Salts, Crystalline Forms, and Hydrates and Solvates of ENT1 Inhibitors” (iTeos Belgium SA, priority 2023, published 2024).

SMILES strings stand for the structures.

In data set [1] the target is T1, ENT1 (Homo sapiens, UniProt Q99808).
T1 construct: endogenous in cells; host or cells: CD19-positive cells (B cells) in whole blood from healthy donors
T1 sequence (Q99808 1-456): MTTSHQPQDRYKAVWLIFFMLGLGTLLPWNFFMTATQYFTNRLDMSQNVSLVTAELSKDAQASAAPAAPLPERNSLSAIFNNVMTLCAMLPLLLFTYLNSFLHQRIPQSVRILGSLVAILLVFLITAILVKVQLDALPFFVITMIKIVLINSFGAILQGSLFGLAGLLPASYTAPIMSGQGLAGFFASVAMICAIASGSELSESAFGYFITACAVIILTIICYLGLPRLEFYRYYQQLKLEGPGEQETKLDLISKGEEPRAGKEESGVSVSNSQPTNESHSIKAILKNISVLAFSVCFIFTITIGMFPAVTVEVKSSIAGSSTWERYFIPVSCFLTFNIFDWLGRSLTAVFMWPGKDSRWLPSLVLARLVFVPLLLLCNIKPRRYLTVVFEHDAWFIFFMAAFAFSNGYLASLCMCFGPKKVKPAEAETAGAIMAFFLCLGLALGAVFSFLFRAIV
As to the kind of experiment: ENT1 activity: intracellular uptake of 5-Ethynyl-Uridine (5EU) in whole blood, CD19 positive cells, flow cytometry. It is filed as cell-based. The note with it: 5EU 60 min at 37° C. As to the method: Example 20-ENT1 Activity of Crystalline Form 2 Compound 1 di(hydrogen sulfate) trihydrate compared to Compound 1 (free base)-Initial and after Six-Month Storage: (1) Initial time: Whole blood from 8 healthy donors was incubated with 5-Ethynyl-Uridine (5EU, CAS #: 69075-42-9, Jena Bioscience) for 60 min at 37° C., in the absence or presence of freshly suspended 1 μM Compound 1 (free base) or 1 μM Form 2 Compound 1 di(hydrogen sulfate) trihydrate. Intracellular uptake of 5EU through ENT1 transporters was assessed by standard flow cytometry and ENT1 activity was determined.
In FIG. 101, the data are expressed as % of ENT1 activity in untreated CD19 cells, arbitrary set at 100%, and are the means±SD of three independent experiments. Statistical analysis was performed using one-way analysis of variance (ANOVA) followed by Tukey's post hoc analysis with Prism 10.1.2 software (GraphPad Software). *: p<0.0001 vs. untreated B cells; ns: non-significant.
(2) Six months: Compound stability was evaluated on suspended solutions of Compound 1 (free base) or Form 2 Compound 1 di(hydrogen sulfate) trihydrate that were stored at −20° C. for 6 months. On the day of the experiment, whole blood from 3 healthy donors was incubated with 5-Ethynyl-Uridine (5EU, CAS #: 69075-42-9, Jena Bioscience) for 60 min at 37° C., in the absence or presence of either 1 μM Compound 1 (free base) or 1 μM Form 2 Compound 1 di(hydrogen sulfate) trihydrate of 6-month-old solutions. Intracellular uptake of 5EU through ENT1 transporters was assessed by standard flow cytometry and ENT1 activity was determined.
In FIG. 102, the data are expressed as % of ENT1 activity in untreated CD19 cells, arbitrary set at 100%, and are the means±SD. Statistical analysis was performed using two-way analysis of variance (ANOVA) with Prism 10.1.2 software (GraphPad Software). *: p<0.05 vs. untreated B cells; **: p<0.01 vs. untreated B cells; ns: non-significant.

A short description of data set [2]: particle size distribution (Mastersizer 2000). It is filed as physicochemical. As to the method: In Example 5, the particle size distribution of solids was measured using a Mastersizer 2000 instrument and the method is detailed below.
Data set [3] can be described thus: Variable Temperature X-Ray Powder Diffraction (VT-XRPD). Type of data set: physicochemical. Also noted: key: M4: Crystalline Form 4 mono(hydrogen sulfate); M8: Crystalline Form 8 mono(hydrogen sulfate); Amorphous mono(hydrogen sulfate). On the procedure: In the examples below, VT-XRPD analysis was carried out on a Philips X'Pert Pro Multipurpose diffractometer equipped with a temperature chamber. The samples were scanned between 4 and 36° 2θ using Cu K radiation (α1 λ=1.54060 Å; α2=1.54443 Å; β=1.39225 Å; α1: α2 ratio=0.5; most, if not all, B radiation is removed from the beam using an X-ray mirror) running in Bragg-Brentano geometry (step size 0.008° 2θ) using 40 kV/40 mA generator settings. Measurements were carried out from ambient temperature to an upper limit of 250° C., with a final measurement taken after cooling.
VT-XRPD analysis was carried out on a Philips X'Pert Pro Multipurpose diffractometer equipped with a temperature chamber. The samples were scanned between 4 and 36° 2θ using Cu K radiation (α1 λ=1.54060 Å; α2=1.54443 Å; β2=1.39225 Å; α1:α2 ratio=0.5; most, if not all, β radiation is removed from the beam using an X-ray mirror) running in Bragg-Brentano geometry (step size 0.008° 2θ) using 40 kV/40 mA generator settings. Measurements were carried out from ambient temperature to an upper limit of 250° C., with a final measurement taken after cooling.

[4] abbreviates: After complete equilibration, 3 days post-drying (moisture content = 6.07%).
Where [5] appears, read: Before complete equilibration, 24 hr post-drying (moisture content = 4.33%).

For `CCCN1CCNCCCNC(=O)c2cc(OC)c(OC)c(c2)OCCC[C@@H](OC(=O)c2cc(OC)c(OC)c(OC)c2)CC1`, the “decrease of ENT1 activity compared to untreated CD19 positive cells” value in data set [1] (1 μM of solutions stored at −20° C. for 6 months, whole blood from 3 healthy donors) stood at 30.4%. In addition, in data set [1] (1 μM, freshly suspended, whole blood from 8 healthy donors), the “decrease of ENT1 activity compared to untreated CD19 positive cells” value came out at 43.9%. In data set [2] (setting [4]), this molecule registered a D10 of 6.32 μm, a D50 of 32.90 μm and a D90 of 84.73 μm. Also, in data set [2] (setting [5]), the D10 is 17.596 μm, the D50 came to 46.785 μm and the D90 is recorded as 109.799 μm.
Turning to `COc1cc(C(=O)O[C@@H]2CCCOc3cc(cc(OC)c3OC)C(=O)NCCCN3CCCN(CC2)CC3)cc(OC)c1OC.O=S(=O)(O)O`, the “VT-XRPD Results” value in data set [3] (Cooling, 30° C., hold 10 min) is “M8”; in data set [3] (Heating, 40° C., hold 60 min), “M8”; in data set [3] (Heating, 50° C., hold 60 min), “M8”; in data set [3] (Heating, 70° C., hold 60 min), “M8”; in data set [3] (second Heating, 50° C., hold 60 min), “M8”; in data set [3] (second Heating, 70° C., hold 60 min), “M8”. In addition, the “VT-XRPD Results” value was “Amorphous” in data set [3] (second Heating, 90° C., hold 60 min); “Amorphous” in data set [3] (second Heating, 100° C., hold 60 min); “Amorphous” in data set [3] (second Heating, 110° C., hold 60 min).
